Reference: the supplement of paper PMC6045584
± gives the standard deviation of the averaged measurements.

Experiments:
CRIZOTINIB = compound: C[C@@H](Oc1cc(-c2cnn(C3CCNCC3)c2)cnc1N)c1c(Cl)ccc(F)c1Cl [CRIZOTINIB]; experiment: surviving fraction relative to DMSO-only wells; higher = less growth inhibition; conditions: exposure time: 5 days
Summary of the method: (§1)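 Viability values are CellTiter-Glo luminescence readings, given as surviving fraction against the median of DMSO-only wells. The readings were taken after 10 minutes at room temperature, following five days of continuous exposure to inhibitors at 0.5, 1, 5, 10, 50, 100, 500 and 1000 nM that began 24 hours after log-phase tumour cell lines were seeded at 250–500 cells per well in 384-well plates. Every line was screened three times and kept only if replicate Pearson r >0.7 and median Z' >0.3.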

OLAPARIB = compound: O=C(c1cc(Cc2n[nH]c(=O)c3ccccc23)ccc1F)N1CCN(C(=O)C2CC2)CC1 [OLAPARIB]; experiment: as above; conditions: exposure time: 5 days
Summary of the method: as §1

Test System	surviving fraction (CRIZOTINIB; 0.5 nM)	surviving fraction (CRIZOTINIB; 1 nM)	surviving fraction (CRIZOTINIB; 5 nM)	surviving fraction (CRIZOTINIB; 10 nM)	surviving fraction (CRIZOTINIB; 50 nM)	surviving fraction (CRIZOTINIB; 100 nM)	surviving fraction (CRIZOTINIB; 500 nM)	surviving fraction (CRIZOTINIB; 1000 nM)	surviving fraction (OLAPARIB; 0.5 nM)	surviving fraction (OLAPARIB; 1 nM)	surviving fraction (OLAPARIB; 5 nM)	surviving fraction (OLAPARIB; 10 nM)	surviving fraction (OLAPARIB; 50 nM)	surviving fraction (OLAPARIB; 100 nM)	surviving fraction (OLAPARIB; 500 nM)	surviving fraction (OLAPARIB; 1000 nM)
SUM149.B1*.S BREAST	1.12 ± 0.043	1.19 ± 0.041	1.15 ± 0.052	1.14 ± 0.067	1.13 ± 0.058	1.18 ± 0.059	1.11 ± 0.029	1.03 ± 0.047	1.092 ± 0.0038	1.09 ± 0.094	1.08 ± 0.031	1.05 ± 0.022	1.03 ± 0.015	0.962 ± 0.035	1.04 ± 0.011	0.911 ± 0.04
T47D BREAST	1.07 ± 0.024	1.08 ± 0.079	1.1 ± 0.043	1.08 ± 0.03	1.07 ± 0.045	1.099 ± 0.0093	1.03 ± 0.038	0.93 ± 0.041	1.01 ± 0.04	1 ± 0.052	0.986 ± 0.011	0.982 ± 0.027	0.997 ± 0.061	0.9606 ± 0.0086	0.971 ± 0.05	0.864 ± 0.023
SUM159 BREAST	1.11 ± 0.03	1.12 ± 0.056	1.12 ± 0.039	1.11 ± 0.022	1.09 ± 0.011	1.103 ± 0.004	1.11 ± 0.013		1.12 ± 0.075	1.05 ± 0.066	1.084 ± 0.01	1.06 ± 0.016	1.05 ± 0.051	0.948 ± 0.24	1.02 ± 0.079	0.993 ± 0.091
CADOES1 SOFT TISSUE		0.892 ± 0.084	0.953 ± 0.13	0.91 ± 0.11	0.902 ± 0.073	0.949 ± 0.077	0.713 ± 0.18	0.314 ± 0.06	1.01 ± 0.059	0.855 ± 0.072	1.03 ± 0.07	0.8393 ± 0.0035	0.951 ± 0.046	0.953 ± 0.076	0.895 ± 0.084	0.81 ± 0.14
SG32 HEADNECK	1.09 ± 0.096	1.05 ± 0.096	1.21 ± 0.066	0.936 ± 0.088		1.01 ± 0.12	0.541 ± 0.036	0.352 ± 0.016	1.23 ± 0.41	1.43 ± 0.2	1.23 ± 0.4	1.24 ± 0.15	1.03 ± 0.054	1.05 ± 0.22	0.77 ± 0.042	0.795 ± 0.081
BT20 BREAST	1.24 ± 0.013	1.23 ± 0.091	1.13 ± 0.059	1.25 ± 0.05	1.05 ± 0.067	1.08 ± 0.031	1.13 ± 0.088	0.592 ± 0.095	0.996 ± 0.12	1.14 ± 0.055	0.942 ± 0.14	1.04 ± 0.096	0.757 ± 0.1	0.732 ± 0.13	0.795 ± 0.21	0.773 ± 0.085
OSHN BONE	1.11 ± 0.026	1.12 ± 0.035	1.12 ± 0.032	1.14 ± 0.027	1.12 ± 0.081	1.14 ± 0.044	1.08 ± 0.048	0.677 ± 0.067	1.06 ± 0.021	1.05 ± 0.023	1.07 ± 0.032	1.04 ± 0.023	1.003 ± 0.01	0.984 ± 0.011	0.984 ± 0.017	0.917 ± 0.013
C33A CERVIX	0.954 ± 0.064	0.983 ± 0.088		1.04 ± 0.13			0.925 ± 0.076	0.828 ± 0.092	1.04 ± 0.098	1.04 ± 0.02	1.07 ± 0.049	1.03 ± 0.017	1.05 ± 0.098	0.998 ± 0.14	0.895 ± 0.068	0.841 ± 0.11
SKBR3 BREAST	1.12 ± 0.084	1.1 ± 0.046	1.09 ± 0.03	1.14 ± 0.25		1.03 ± 0.046	1 ± 0.12		1.02 ± 0.1	1.05 ± 0.15	0.939 ± 0.12	1 ± 0.21	0.922 ± 0.14	0.935 ± 0.093	0.79 ± 0.13	0.813 ± 0.072
22RV1 PROSTATE	0.993 ± 0.1	1.11 ± 0.083			1.11 ± 0.091	0.976 ± 0.16		0.459 ± 0.024	1.08 ± 0.029	1.04 ± 0.044	1.05 ± 0.036	1.01 ± 0.09	1.06 ± 0.031	1 ± 0.05	1.04 ± 0.049	0.997 ± 0.051
LNCAP PROSTATE	1.01 ± 0.15			0.924 ± 0.094	0.872 ± 0.061	0.904 ± 0.12	0.653 ± 0.063	0.425 ± 0.065	1.09 ± 0.1	1.03 ± 0.16	1 ± 0.096	1.032 ± 0.0049	1.12 ± 0.086	1.02 ± 0.29	0.97 ± 0.061	0.82 ± 0.13
CASKI CERVIX	0.955 ± 0.029	1 ± 0.067		1.04 ± 0.06	0.999 ± 0.053	0.984 ± 0.052	0.382 ± 0.063	0.383 ± 0.029	0.921 ± 0.029	0.947 ± 0.057	0.993 ± 0.051	0.982 ± 0.015	0.859 ± 0.016	0.844 ± 0.026	0.749 ± 0.075	0.765 ± 0.068
HU09 BONE	0.86 ± 0.084	0.956 ± 0.13	1.13 ± 0.099	1.14 ± 0.06	1.02 ± 0.044	1.02 ± 0.042	0.511 ± 0.063	0.233 ± 0.048	1.01 ± 0.094	0.974 ± 0.031	1.04 ± 0.13	1.13 ± 0.083	0.896 ± 0.063	1.09 ± 0.08	0.851 ± 0.061	0.779 ± 0.096
MDAMB157 BREAST	1.03 ± 0.087	0.999 ± 0.027	1.06 ± 0.076	0.977 ± 0.044	1.06 ± 0.11	1.04 ± 0.082	0.754 ± 0.021	0.601 ± 0.029	1.01 ± 0.093	1.06 ± 0.035	0.992 ± 0.085	0.968 ± 0.051	0.991 ± 0.096	0.965 ± 0.043	0.903 ± 0.079	0.729 ± 0.04
HCC78 LUNG	0.99 ± 0.11	1 ± 0.074			0.521 ± 0.021	0.522 ± 0.082	0.216 ± 0.062	0.072 ± 0.029	0.948 ± 0.06	0.986 ± 0.2	1.03 ± 0.32	1.22 ± 0.46	1.12 ± 0.1	1.05 ± 0.12	0.987 ± 0.19	0.859 ± 0.068
HCC1395 BREAST	1.06 ± 0.18	1.28 ± 0.025	1.33 ± 0.061	1.44 ± 0.15	1.29 ± 0.18	1.28 ± 0.018	1.21 ± 0.14	1.21 ± 0.061	0.85 ± 0.034	0.934 ± 0.12	1.06 ± 0.065	1.03 ± 0.037	0.93 ± 0.11	1.02 ± 0.059	0.787 ± 0.096	0.799 ± 0.17
RDES SOFT TISSUE		1.24 ± 0.083		1.15 ± 0.11		1.16 ± 0.1	1.44 ± 0.12	0.194 ± 0.047	1.16 ± 0.19	1.11 ± 0.23	1.14 ± 0.15	0.966 ± 0.14	0.85 ± 0.14	0.8 ± 0.093	1.01 ± 0.065	1.41 ± 0.088
MDAMB231 BREAST	0.997 ± 0.019	1.01 ± 0.024	0.999 ± 0.034	1 ± 0.023	0.947 ± 0.031	0.9384 ± 0.0074	0.541 ± 0.011	0.352 ± 0.022	0.961 ± 0.02	0.98 ± 0.031	0.974 ± 0.0099	0.97 ± 0.029	0.929 ± 0.017	0.957 ± 0.013	0.899 ± 0.015	0.807 ± 0.016
